# Laboratory results reported in ChEMBL document CHEMBL1201862, “PubChem BioAssay data set” (2004).
# Calls of active or inactive are those of the source.
# Legend:
# HEK293 = assay: EBV LMP1 TES2 canonical NF-kB signalling blockers – cell-based, HEK293, luciferase, cherry-pick, dose response (AID 588343); assay type: functional; details: Homo sapiens
# H9c2 = assay: cells; assay type: functional, cell-based; details: Rattus norvegicus, H9c2, Myocardium;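 also: confirmatory concentration-response retest of ultra-high-throughput screening hits for modulation of myocardial damage; cell death induced by hydrogen peroxide oxidative stress; compound pretreatment for 60 min then peroxide exposure for 2 h; potency is for protecting the cells against peroxide damage rather than for killing them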
# Fatty acid synthase [1] = biological target: T1, Fatty acid synthase (Homo sapiens, UniProt P49327); assay: inhibition of human FAS-TE enzyme activity – biochemical, kinetic fluorescence intensity, dose response (AID 624326); assay type: functional;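 also: rate of fluorescence rise from hydrolysis of a fluorogenic O-methyl fluorescein ester substrate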
# T1 sequence (P49327 whole entry): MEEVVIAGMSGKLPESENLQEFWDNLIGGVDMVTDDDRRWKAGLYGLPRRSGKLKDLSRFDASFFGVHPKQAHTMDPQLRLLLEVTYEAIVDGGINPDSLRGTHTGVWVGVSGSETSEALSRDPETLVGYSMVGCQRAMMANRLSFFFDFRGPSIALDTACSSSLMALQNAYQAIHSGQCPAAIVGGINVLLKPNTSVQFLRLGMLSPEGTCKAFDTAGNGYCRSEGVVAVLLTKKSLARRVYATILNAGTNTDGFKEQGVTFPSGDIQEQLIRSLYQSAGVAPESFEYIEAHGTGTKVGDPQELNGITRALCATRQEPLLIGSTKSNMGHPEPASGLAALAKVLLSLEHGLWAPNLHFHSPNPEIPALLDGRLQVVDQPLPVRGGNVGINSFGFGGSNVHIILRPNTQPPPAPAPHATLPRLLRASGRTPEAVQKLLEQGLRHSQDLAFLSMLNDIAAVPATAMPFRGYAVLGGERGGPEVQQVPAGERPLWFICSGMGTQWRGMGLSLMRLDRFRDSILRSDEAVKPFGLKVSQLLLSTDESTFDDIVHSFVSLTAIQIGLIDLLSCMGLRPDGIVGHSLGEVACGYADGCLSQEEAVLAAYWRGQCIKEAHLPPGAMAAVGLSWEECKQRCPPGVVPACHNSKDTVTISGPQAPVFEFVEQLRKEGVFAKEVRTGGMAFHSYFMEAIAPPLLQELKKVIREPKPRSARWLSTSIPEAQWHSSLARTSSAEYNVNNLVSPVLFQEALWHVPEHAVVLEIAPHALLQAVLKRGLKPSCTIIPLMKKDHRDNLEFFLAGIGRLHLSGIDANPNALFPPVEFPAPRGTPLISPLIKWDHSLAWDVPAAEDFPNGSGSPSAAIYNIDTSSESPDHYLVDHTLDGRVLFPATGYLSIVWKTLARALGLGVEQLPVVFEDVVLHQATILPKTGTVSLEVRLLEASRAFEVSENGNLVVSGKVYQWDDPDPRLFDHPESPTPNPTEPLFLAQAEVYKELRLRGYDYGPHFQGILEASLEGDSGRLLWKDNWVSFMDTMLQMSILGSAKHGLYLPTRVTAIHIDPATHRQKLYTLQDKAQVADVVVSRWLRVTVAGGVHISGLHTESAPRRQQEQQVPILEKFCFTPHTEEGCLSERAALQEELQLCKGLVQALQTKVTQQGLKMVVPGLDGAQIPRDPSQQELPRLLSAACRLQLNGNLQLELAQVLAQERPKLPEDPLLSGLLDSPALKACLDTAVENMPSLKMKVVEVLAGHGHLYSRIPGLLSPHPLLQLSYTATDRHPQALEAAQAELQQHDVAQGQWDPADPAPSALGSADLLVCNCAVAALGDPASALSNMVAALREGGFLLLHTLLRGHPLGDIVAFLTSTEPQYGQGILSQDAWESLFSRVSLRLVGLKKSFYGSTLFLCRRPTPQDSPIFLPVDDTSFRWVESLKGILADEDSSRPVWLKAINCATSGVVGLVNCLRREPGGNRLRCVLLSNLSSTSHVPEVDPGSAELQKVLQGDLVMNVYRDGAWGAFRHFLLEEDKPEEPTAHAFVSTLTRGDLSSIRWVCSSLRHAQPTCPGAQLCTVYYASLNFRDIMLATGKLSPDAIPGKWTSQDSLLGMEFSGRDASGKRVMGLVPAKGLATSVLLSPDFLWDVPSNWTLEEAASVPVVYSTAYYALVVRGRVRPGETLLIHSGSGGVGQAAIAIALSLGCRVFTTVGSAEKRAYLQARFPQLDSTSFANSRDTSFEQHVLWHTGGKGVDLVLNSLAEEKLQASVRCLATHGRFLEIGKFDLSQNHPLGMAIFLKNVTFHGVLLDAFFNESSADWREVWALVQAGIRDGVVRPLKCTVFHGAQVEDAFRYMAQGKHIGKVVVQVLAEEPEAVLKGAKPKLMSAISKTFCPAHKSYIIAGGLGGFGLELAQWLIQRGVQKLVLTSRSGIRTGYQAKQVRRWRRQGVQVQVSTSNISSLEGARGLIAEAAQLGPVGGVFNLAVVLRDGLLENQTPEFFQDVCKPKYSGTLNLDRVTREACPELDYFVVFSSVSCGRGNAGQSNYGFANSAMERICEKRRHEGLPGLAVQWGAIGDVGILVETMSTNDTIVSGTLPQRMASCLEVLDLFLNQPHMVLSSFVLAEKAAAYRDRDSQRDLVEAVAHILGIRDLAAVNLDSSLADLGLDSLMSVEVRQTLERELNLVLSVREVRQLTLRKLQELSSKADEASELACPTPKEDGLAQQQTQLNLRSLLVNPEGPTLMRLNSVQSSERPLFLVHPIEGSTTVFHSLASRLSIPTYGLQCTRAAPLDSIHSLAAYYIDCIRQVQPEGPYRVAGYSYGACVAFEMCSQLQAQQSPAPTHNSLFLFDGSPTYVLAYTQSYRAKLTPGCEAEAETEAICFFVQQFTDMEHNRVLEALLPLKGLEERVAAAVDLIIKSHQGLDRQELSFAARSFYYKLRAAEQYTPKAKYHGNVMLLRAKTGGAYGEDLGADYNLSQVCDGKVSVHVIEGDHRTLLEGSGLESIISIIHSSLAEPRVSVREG
# Fatty acid synthase [2] = biological target: T1, Fatty acid synthase; assay: inhibition of human FAS-TE enzyme activity – biochemical, endpoint fluorescence intensity, uHTS hits, dose response (AID 624327); assay type: functional;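 also: fluorescence from hydrolysis of an O-methyl fluorescein acyl ester substrate by the enzyme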
# Coagulation factor XII = biological target: T2, Coagulation factor XII (Homo sapiens, UniProt P00748); assay type: functional;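 also: activated factor XIIa alpha cleaving a fluorogenic AMC peptide substrate; inhibitor potency from loss of enzyme activity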
# T2 sequence (P00748 whole entry): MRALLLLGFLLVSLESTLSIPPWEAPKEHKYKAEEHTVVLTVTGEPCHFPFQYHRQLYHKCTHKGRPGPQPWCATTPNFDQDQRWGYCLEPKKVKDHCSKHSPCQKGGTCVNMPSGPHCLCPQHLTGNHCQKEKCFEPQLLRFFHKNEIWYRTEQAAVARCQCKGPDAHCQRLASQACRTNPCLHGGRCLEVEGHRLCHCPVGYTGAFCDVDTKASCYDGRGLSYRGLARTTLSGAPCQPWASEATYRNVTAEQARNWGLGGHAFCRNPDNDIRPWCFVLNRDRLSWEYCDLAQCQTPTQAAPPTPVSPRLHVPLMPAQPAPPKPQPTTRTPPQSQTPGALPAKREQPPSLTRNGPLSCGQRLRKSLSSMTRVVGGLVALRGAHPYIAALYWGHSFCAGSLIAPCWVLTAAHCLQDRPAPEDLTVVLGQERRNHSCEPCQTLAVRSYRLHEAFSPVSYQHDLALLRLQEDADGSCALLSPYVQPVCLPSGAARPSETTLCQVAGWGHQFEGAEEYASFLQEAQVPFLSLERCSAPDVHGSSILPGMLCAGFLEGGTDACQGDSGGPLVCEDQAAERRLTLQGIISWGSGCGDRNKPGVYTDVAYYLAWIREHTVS
# [3] = biological target: T3, Ubiquitin-conjugating enzyme E2 N (Homo sapiens, UniProt P61088); assay type: functional;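 also: Dose-response confirmation in a TR-FRET assay detecting UBC13-driven polyubiquitin chain formation, inhibition measured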
# T3 sequence (P61088 whole entry): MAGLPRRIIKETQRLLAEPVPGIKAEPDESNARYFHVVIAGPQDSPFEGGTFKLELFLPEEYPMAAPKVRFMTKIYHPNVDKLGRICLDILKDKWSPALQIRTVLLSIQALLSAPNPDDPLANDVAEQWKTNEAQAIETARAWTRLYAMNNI
# Paired box protein Pax-8 = Paired box protein Pax-8 (Homo sapiens, UniProt Q06710); assay: PAX8 transcriptional activity inhibition in RMG-I – RMG-I cells, luciferase, cherry-pick, dose response (AID 687027); assay type: functional, cell-based;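 also: luciferase reporter driven by Pax8 target thyroperoxidase promoter measured by SteadyGlo luminescence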
# Paired box protein Pax-8, sequence (Q06710 whole entry): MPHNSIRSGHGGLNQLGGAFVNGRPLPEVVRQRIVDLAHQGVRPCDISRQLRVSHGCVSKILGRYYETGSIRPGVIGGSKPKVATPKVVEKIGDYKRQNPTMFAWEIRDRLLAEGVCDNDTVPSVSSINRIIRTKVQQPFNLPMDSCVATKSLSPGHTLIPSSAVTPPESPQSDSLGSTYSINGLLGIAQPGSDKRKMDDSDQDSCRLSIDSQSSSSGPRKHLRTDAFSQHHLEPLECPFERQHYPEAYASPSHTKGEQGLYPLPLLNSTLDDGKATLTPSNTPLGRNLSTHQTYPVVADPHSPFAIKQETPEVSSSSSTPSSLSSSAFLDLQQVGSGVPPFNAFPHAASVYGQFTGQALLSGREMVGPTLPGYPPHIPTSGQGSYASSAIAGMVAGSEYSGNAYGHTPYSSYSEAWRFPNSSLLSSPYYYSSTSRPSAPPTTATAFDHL
# [4] = OVCAR-3 cell viability loss – plate reader, dry powder samples, PAX8 inhibitor project, dose response (AID 743044); assay type: functional, cell-based
# Protein skinhead-1 = biological target: T4, Protein skinhead-1 (Caenorhabditis elegans, UniProt P34707); assay type: functional
# T4 sequence (P34707 whole entry): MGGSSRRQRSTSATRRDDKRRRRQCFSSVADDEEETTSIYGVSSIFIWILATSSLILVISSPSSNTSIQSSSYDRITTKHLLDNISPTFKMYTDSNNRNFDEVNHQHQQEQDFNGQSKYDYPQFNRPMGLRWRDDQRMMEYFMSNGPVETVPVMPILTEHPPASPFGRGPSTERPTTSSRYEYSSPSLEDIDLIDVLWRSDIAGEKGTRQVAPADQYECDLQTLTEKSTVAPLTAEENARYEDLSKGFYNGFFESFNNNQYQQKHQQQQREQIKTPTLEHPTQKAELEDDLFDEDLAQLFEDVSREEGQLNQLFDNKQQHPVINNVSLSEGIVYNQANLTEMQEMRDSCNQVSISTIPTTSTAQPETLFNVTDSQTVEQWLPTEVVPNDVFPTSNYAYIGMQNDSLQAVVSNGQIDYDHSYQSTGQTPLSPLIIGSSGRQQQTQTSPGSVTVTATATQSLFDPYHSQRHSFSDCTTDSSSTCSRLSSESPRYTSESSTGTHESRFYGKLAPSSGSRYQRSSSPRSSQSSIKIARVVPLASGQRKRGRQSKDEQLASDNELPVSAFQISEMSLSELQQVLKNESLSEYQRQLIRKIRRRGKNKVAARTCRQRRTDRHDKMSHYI
# [5] = blockade of melanocortin 4 receptor signaling – cell-based, plate reader, cherry pick, counter-screen for LGR2 antagonist project, dose response (AID 743444); assay type: functional;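 also: transfected HEK 293 cells stimulated with alpha-MSH peptide; potency of inhibitors of the alpha-MSH evoked signal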
# [6] = luciferase reporter signal suppression in cells – H4 neuroglioma cells, luminescence, dose response (AID 1990); assay type: functional, cell-based
# [7] = Luminescence Cell-Based Dose Response HTS to Identify Inhibitors of 5'UTR Stem-Loop Driven Prion Protein mRNA Translation in H4 Neuroglioblastoma Cells. [Related pubchem assays: 1827 (Project Summary), 1813 (Primary HTS)]; assay type: functional
# [8] = alpha-synuclein stem-loop luciferase translation blockers – H4 neuroglioma cells, luminescence, confirmation (AID 1988); assay type: functional, cell-based
# [9] = blockers of bursicon-stimulated LGR2 cAMP reporter – cell-based, HEK293, CRE-luciferase reporter, cherry pick, set 2, dose response (AID 743343); assay type: functional;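 also: transfected cells were stimulated with diluted bursicon conditioned medium after compound addition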
smiles,measurement,setting,value
Cc1ccnc(NC(=O)c2sc3ccccc3c2Cl)c1,AC50,HEK293,1.46 µM (active)
CCOC(=O)C1CCN(C(=O)c2ccc3c(=O)n4nc(Nc5ccccc5OC)sc4nc3c2)CC1,IC50,H9c2,> 79 µM (inactive)
same,IC50,Fatty acid synthase [1],11.8 µM (active)
same,IC50,Fatty acid synthase [2],12.4 µM (active)
COC(=O)c1c(NC(=O)c2ccc(Br)s2)sc2c1CCC2,IC50,Coagulation factor XII,44.4 µM (active)
C#CCOCCOCCOCCNc1nc(N2CCN(C(=O)[C@H](CCCN=C(N)N)n3cc(C(N)[C@@H](C)CC)nn3)CC2)nc(N2CCN(C(=O)[C@H](CCCCN)n3cc([C@@H](N)CC(N)=O)nn3)CC2)n1 (stereo not given in full),IC50,[3],> 20 µM (inactive)
COc1ccc(C(=O)OC(C)C(=O)NC(C)CCc2ccccc2)cc1[N+](=O)[O-] (stereo not given),IC50,Fatty acid synthase [1],17.9 µM (active)
same,IC50,Fatty acid synthase [2],19.1 µM (active)
CC(C)(C)c1ccc(C(=O)N2CCC2(C)C(=O)NS(=O)(=O)c2ccc(C#N)cc2)cc1 (stereo not given),IC50,Fatty acid synthase [1],8.79 µM (active)
same,IC50,Fatty acid synthase [2],9.51 µM (active)
CNC(=O)COC(=O)/C=C/c1cn(-c2ccccc2)nc1-c1ccc(C)o1,IC50,H9c2,> 79 µM (inactive)
same,IC50,[3],> 20 µM (inactive)
CCc1nc2ccccc2c(C(=O)OCCN2C(=O)c3ccccc3C2=O)c1C,IC50,[3],> 20 µM (inactive)
N#CC1(NC(=O)COC(=O)c2cc([N+](=O)[O-])ccc2N2CCOCC2)CCCCC1,IC50,Fatty acid synthase [1],2.59 µM (active)
same,IC50,Fatty acid synthase [2],3.79 µM (active)
O=C(NCc1ccc2c3c(cccc13)C(=O)N2)c1cccs1,IC50,Coagulation factor XII,> 50 µM (inactive)
O=C(C[C@@H]1C[C@@H]2c3cc(NC(=O)Cc4ccncc4)ccc3O[C@@H]2[C@H](CO)O1)NCc1ccc(-c2ccccc2)cc1,AC50,Paired box protein Pax-8,13.3 µM (active)
same,AC50,[4],37.8 µM (active)
[O-][S+](NC1CCCCC1)C12CC3CC(CC(C3)C1)C2 (stereo not given),IC50,Coagulation factor XII,> 50 µM (inactive)
COc1cc(SC)ccc1C(=O)Nc1ccc(Cl)cn1,IC50,Protein skinhead-1,> 100 µM (inactive)
same,AC50,[5],1.45 µM (active)
same,EC50,[6],4.03 µM (inconclusive)
same,EC50,[7],1.33 µM (active)
same,EC50,[8],0.497 µM (active)
same,AC50,[9],1.59 µM (active)
COc1ccc(Nc2oc(COc3ccc(Cl)cc3)nc2C#N)cc1,AC50,HEK293,4.08 µM (active)
O=C(CCNc1ccc(Br)cc1)c1cccc([N+](=O)[O-])c1,IC50,Fatty acid synthase [1],7.64 µM (active)
same,IC50,Fatty acid synthase [2],13.3 µM (active)
C[C@H]1CN([C@@H](C)CO)C(=O)Cc2cc(NC(=O)NC3CCCCC3)ccc2O[C@H]1CN(C)S(=O)(=O)c1ccc(Cl)cc1,AC50,Paired box protein Pax-8,11.9 µM (active)
same,AC50,[4],13.5 µM (active)
